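In this assay, cells in 96-well plates receive the compound at five concentrations for 48 hours. Endpoints are linearly interpolated between the surrounding concentrations. Here, GI50 denotes the concentration required for 50% inhibition of growth.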 Active and inactive are the calls of the source. Rule as the data show it: active = GI50 up to about 1.1 µM and inactive = higher.
Columns and labels:
Assay in all cases: NCI anticancer screen, dose series, 48 h
BT-549 = system: BT-549
DLD-1 = system: DLD-1
DMS-114 = system: DMS-114
DMS-273 = system: DMS-273
KM-20L2 = system: KM-20L2
M19-MEL = system: M19-MEL
XF498 = system: XF498
HOP-18 = system: HOP-18
RXF 631 = system: RXF 631

SMILES	GI50 (BT-549)	GI50 (DLD-1)	GI50 (KM-20L2)	GI50 (M19-MEL)	other results
CCC1(N)C(=O)OCc2c1cc1n(c2=O)Cc2cc3ccccc3nc2-1 (stereo unspecified)	30.5 µM (inactive)	–	–	–	–
N=C(N)SCC(=O)O	> 100 µM (inactive)	–	–	–	–
CN(C)c1ccc(/C=C/c2ccc3ccccc3[n+]2C)cc1	1.2 µM (inactive)	–	–	–	–
O=C(O)/C=C/c1ccncc1	–	> 100 µM (inactive)	> 100 µM (inactive)	> 100 µM (inactive)	GI50 (DMS-114): > 100 µM (inactive); GI50 (DMS-273): > 100 µM (inactive); GI50 (XF498): > 100 µM (inactive)
O=C(N[C@@H](c1ccccc1)[C@@H](O)C(=O)OCc1ccc2c(c1)OCO2)c1ccccc1	–	> 100 µM (inactive)	> 100 µM (inactive)	> 100 µM (inactive)	GI50 (DMS-114): > 100 µM (inactive); GI50 (DMS-273): > 100 µM (inactive); GI50 (HOP-18): > 100 µM (inactive); GI50 (XF498): > 76.2 µM (inactive)
CC1C(=O)CC(c2cccs2)N(N=O)C1c1cccs1 (stereo unspecified)	–	70.3 µM (inactive)	71 µM (inactive)	47.8 µM (inactive)	GI50 (DMS-273): 38.5 µM (inactive); GI50 (HOP-18): 75.2 µM (inactive); GI50 (XF498): 3.08 µM (inactive)
CC1OC=CC(=O)C1O (stereo unspecified)	–	> 100 µM (inactive)	> 100 µM (inactive)	> 100 µM (inactive)	GI50 (XF498): > 100 µM (inactive)
Cc1ccc(C2=Nc3cccc4cccc(c34)N2)cc1	> 100 µM (inactive)	–	–	–	–
Cn1c(=O)c2c(nc3sc4c(n32)C(=O)c2c(O)ccc(O)c2C4=O)n(C)c1=O	5.9 µM (inactive)	–	–	–	–
C#C[C@]1(O)CC[C@H]2[C@@H]3CCC4=C/C(=N\OCCN(CC)CC)CC[C@]4(C)[C@H]3CC[C@@]21C	10 µM (inactive)	–	–	–	–
CS/C(=N\C(=S)N(C)C)N(c1ccccc1)c1nc(N(C)C)s[s+]1	–	–	15.9 µM (inactive)	3.18 µM (inactive)	GI50 (DMS-114): 0.708 µM (active); GI50 (DMS-273): 3.52 µM (inactive)
N/C(=N\Nc1nc2cc([N+](=O)[O-])ccc2o1)c1ccccn1	0.335 µM (active)	–	–	–	–
O=C(NCCCNCCN1C(=O)c2cccc3cc([N+](=O)[O-])cc(c23)C1=O)c1cc(-c2ccccc2)nc2ccccc12	6.15 µM (inactive)	–	–	–	–
COC(=O)C(COC(C)=O)NC(=O)/C=C/c1ccc(O)c(OC(C)=O)c1 (stereo unspecified)	> 100 µM (inactive)	–	–	–	–
CCOC(=O)NC(=O)c1cn(CCSCCOC(=O)NCCCCCCNC(=O)OCCSCCn2cc(C(=O)NC(=O)OCC)c(=O)n(C)c2=O)c(=O)n(C)c1=O	–	72.8 µM (inactive)	39.7 µM (inactive)	21.4 µM (inactive)	GI50 (HOP-18): 0.237 µM (active); GI50 (RXF 631): 21 µM (inactive); GI50 (XF498): 18.1 µM (inactive)
CC1(c2cc3c(cc2Br)OCO3)SCCCS1	–	34.8 µM (inactive)	34.4 µM (inactive)	39.6 µM (inactive)	GI50 (DMS-114): 32.2 µM (inactive); GI50 (DMS-273): 45.2 µM (inactive); GI50 (RXF 631): 44.9 µM (inactive); GI50 (XF498): 29.5 µM (inactive)
O=C1C(Cl)=C(N2C(=O)CCCC2=O)C(=O)c2ccccc21	20.3 µM (inactive)	–	–	–	–
CN(C)CCCN1c2ccc([N+](=O)[O-])cc2CCc2cc([N+](=O)[O-])ccc21	15.4 µM (inactive)	–	–	–	–
C/C=C1\CC(C(=O)OCC)CCCCCCC1=O (stereo unspecified)	> 100 µM (inactive)	–	–	–	–
O=C(O)COc1ccccc1C(=O)Nc1ccccc1	–	> 100 µM (inactive)	> 100 µM (inactive)	> 100 µM (inactive)	GI50 (DMS-273): > 100 µM (inactive); GI50 (XF498): > 100 µM (inactive)
O=C(NNc1ccc([N+](=O)[O-])cc1[N+](=O)[O-])/C(O)=C\C(=O)c1ccccc1	22.2 µM (inactive)	–	–	–	–
C/C(=N\NS(=O)(=O)c1ccc(C)cc1)P(=O)(O)O	> 100 µM (inactive)	–	–	–	–

SMILES	GI50 (BT-549)	GI50 (DLD-1)	GI50 (KM-20L2)	GI50 (M19-MEL)	other results
CN(C)/N=C(\CCN1CCCC1)CC(c1ccccc1)c1c(O)c2ccccc2oc1=O (stereo unspecified)	–	> 100 µM (inactive)	> 100 µM (inactive)	> 100 µM (inactive)	GI50 (XF498): > 100 µM (inactive)
CC1(c2cccc(Cl)c2)CC(c2cccc(Cl)c2)=C(C#N)C(=C(C#N)C#N)N1 (stereo unspecified)	22.8 µM (inactive)	–	–	–	–
COCCNc1cncc(C(N)=O)c1	> 100 µM (inactive)	–	–	–	–
CC(C)(Cl)C(Br)CC/C(CBr)=C(/Cl)CCl.CC(C)(Cl)C(Br)CC/C(CBr)=C(\Cl)CCl (stereo unspecified)	2.01 µM (inactive)	–	–	–	–
COc1cc(C2c3cc4c(cc3OC(NCCO)C2C)OCO4)cc(OC)c1O (stereo unspecified)	9.53 µM (inactive)	–	–	–	–
COn1cc(CO)c2ccccc21	> 100 µM (inactive)	–	–	–	–
N#Cc1c(-c2ccccc2)cc(-c2ccccc2)n(C2OCC(O)C(O)C2O)c1=S (stereo unspecified)	16.6 µM (inactive)	–	–	–	–
Cc1ccc(S(=O)(=O)NC(=O)Nc2ccc(C(=O)O)cc2)cc1	> 100 µM (inactive)	–	–	–	–
Cc1ccc(C(=O)/C(C#N)=C/Nc2c(C)n(C)n(-c3ccccc3)c2=O)cc1	> 100 µM (inactive)	–	–	–	–
CCc1ccccc1NC(=O)CCc1n[nH]c(=S)o1	–	92.5 µM (inactive)	> 100 µM (inactive)	> 100 µM (inactive)	GI50 (DMS-114): > 100 µM (inactive); GI50 (DMS-273): > 100 µM (inactive); GI50 (HOP-18): > 100 µM (inactive)
Cc1ccc(/C=C2/N/C(=N\N=C/c3ccccc3)NC2=O)cc1	29.9 µM (inactive)	–	–	–	–
COc1ccccc1CNCCCCCNCCCCCCCCCCNCCCCCNCc1ccccc1OC	23.5 µM (inactive)	–	–	–	–
Cc1cccc(C(C)(C)C)c1NC(=O)CCc1nnc(S)[nH]1	–	> 100 µM (inactive)	> 100 µM (inactive)	> 100 µM (inactive)	GI50 (DMS-114): > 100 µM (inactive); GI50 (DMS-273): > 100 µM (inactive); GI50 (RXF 631): > 100 µM (inactive); GI50 (XF498): > 100 µM (inactive)
Clc1ccc(-c2nc(-c3ccc(Cl)cc3)[s+]s2)cc1	72.9 µM (inactive)	–	–	–	–
COc1ccc2[nH]cc(CCNC(=O)[C@H](Cc3ccccc3)NC(=O)[C@@H](NCC(F)(F)F)C(C)C)c2c1	21.4 µM (inactive)	–	–	–	–
COc1ccc(NC(C)=O)c(C(=O)CCNC(C)=O)c1	> 100 µM (inactive)	–	–	–	–
C=CCC1(C(=O)OC)CCC/C(=N\O)C1 (stereo unspecified)	> 10 µM (inactive)	–	–	–	–
C#Cc1c(C)c(/C=C/C(C)=C/C=C/C(C)=C/C(=O)OC)n(C)c1C	–	> 100 µM (inactive)	> 100 µM (inactive)	> 100 µM (inactive)	GI50 (DMS-114): > 100 µM (inactive); GI50 (RXF 631): > 100 µM (inactive); GI50 (XF498): > 100 µM (inactive)
COC(=O)/C(C#N)=C1\NN=NN1CCCc1ccccc1	–	> 100 µM (inactive)	–	> 100 µM (inactive)	GI50 (DMS-114): > 100 µM (inactive); GI50 (DMS-273): > 100 µM (inactive); GI50 (HOP-18): 90.6 µM (inactive); GI50 (RXF 631): > 100 µM (inactive)
N#Cc1nc(CCCN2C(=O)c3ccccc3C2=O)oc1N	> 100 µM (inactive)	–	–	–	–
COc1cc2c(cc1OCCCCCCCCN1C(=O)c3cccc4cccc(c34)C1=O)N=C[C@@H]1CCCN1C2=O	12.6 µM (inactive)	–	–	–	–
CCOC(=O)C1=C(C)N(NC(N)=O)C(C)(O)C12CCOC2=O (stereo unspecified)	–	> 100 µM (inactive)	> 100 µM (inactive)	> 100 µM (inactive)	GI50 (DMS-273): > 100 µM (inactive); GI50 (RXF 631): > 100 µM (inactive); GI50 (XF498): > 100 µM (inactive)

SMILES	GI50 (BT-549)	GI50 (DLD-1)	GI50 (KM-20L2)	GI50 (M19-MEL)	other results
NCCSc1nc2ccccc2s1	31.5 µM (inactive)	–	–	–	–
CN(CC(=O)Nc1ccccc1C(=O)O)c1ccccc1	> 100 µM (inactive)	–	–	–	–
Cc1c(NC(=S)NN)c(=O)n(-c2ccccc2)n1C	> 100 µM (inactive)	–	–	–	–
O=C(c1ccccc1)C1C[C@H]2CO[C@H](c3ccccc3)N2C1=O (stereo partly specified)	> 100 µM (inactive)	–	–	–	–
Cc1ccccc1C(=O)c1c(O)c2c(c(O)c1Br)CCCC2	–	23 µM (inactive)	19.4 µM (inactive)	15.6 µM (inactive)	GI50 (DMS-114): 13.6 µM (inactive); GI50 (DMS-273): 17.6 µM (inactive); GI50 (HOP-18): 12.5 µM (inactive); GI50 (XF498): 21.7 µM (inactive)
Cc1ccc(F)cc1NC(=O)O/N=C(\Cl)C(C)C	2.18 µM (inactive)	–	–	–	–
O=C(/C=C1\C[C@H]2C=Nc3ccccc3C(=O)N2C1)NCCCCCNC(=O)/C=C1\C[C@H]2C=Nc3ccccc3C(=O)N2C1	12.6 µM (inactive)	–	–	–	–
CC1=C[P+](c2ccccc2)(c2ccccc2)c2ccccc2O1	10 µM (inactive)	–	–	–	–
COc1ccc2oc(=O)c(-c3cc4c(c(C)n3)c(=O)oc3ccc(OC)cc34)cc2c1	> 100 µM (inactive)	–	–	–	–
Cc1c(/C=N\NC(=S)NCCNC(=S)N/N=C\c2c(C)n(C)n(-c3ccccc3)c2=O)c(=O)n(-c2ccccc2)n1C	> 100 µM (inactive)	–	–	–	–
CCCCCCCCOC(CO)CO	–	> 100 µM (inactive)	> 100 µM (inactive)	> 100 µM (inactive)	GI50 (DMS-114): > 100 µM (inactive); GI50 (DMS-273): > 100 µM (inactive); GI50 (HOP-18): > 100 µM (inactive)
C#C[C@]1(O)CC[C@H]2[C@@H]3CCC4=C/C(=N/NC(=O)c5cccc6cc7ccccc7nc56)CC[C@@H]4[C@H]3CC[C@@]21CC	> 100 µM (inactive)	–	–	–	–
COc1ccc(C(C#N)NCCCCCCNC(C#N)c2ccc(OC)cc2)cc1 (stereo unspecified)	> 100 µM (inactive)	–	–	–	–
COC1/C(=C\c2ccccc2I)c2ccccc2N1C(C)=O (stereo unspecified)	–	15.5 µM (inactive)	15.7 µM (inactive)	19.6 µM (inactive)	GI50 (DMS-114): 17 µM (inactive); GI50 (DMS-273): 11.7 µM (inactive); GI50 (HOP-18): 19 µM (inactive)
O=c1[nH]c(Nc2ccc(Br)c(C(F)(F)F)c2)nc2[nH]cnc12	62.7 µM (inactive)	–	–	–	–
Cc1ccc(C(=O)Nc2ccc(S(=O)(=O)O)c3cc(S(=O)(=O)O)cc(S(=O)(=O)O)c23)cc1NC(=S)Nc1cc(C(=O)Nc2ccc(S(=O)(=O)O)c3cc(S(=O)(=O)O)cc(S(=O)(=O)O)c23)ccc1C	> 75 µM (inactive)	–	–	–	–
CCCCCCc1cn([C@H]2C[C@H](O)[C@@H](CO)O2)c(=O)[nH]c1=O	–	> 100 µM (inactive)	> 100 µM (inactive)	> 100 µM (inactive)	GI50 (DMS-114): > 100 µM (inactive); GI50 (DMS-273): > 100 µM (inactive); GI50 (HOP-18): > 100 µM (inactive); GI50 (XF498): > 100 µM (inactive)
C=C1CCC23CC(CC[C@@H]2[C@@]12C[C@@H](c1ccoc1)OC2=O)OC3=O (stereo partly specified)	–	> 100 µM (inactive)	> 100 µM (inactive)	> 100 µM (inactive)	GI50 (DMS-114): > 100 µM (inactive); GI50 (DMS-273): > 100 µM (inactive); GI50 (HOP-18): > 100 µM (inactive); GI50 (XF498): > 100 µM (inactive)
CC(NC1CCCC[C@@H]1O)c1ccccc1 (stereo partly specified)	–	> 100 µM (inactive)	> 100 µM (inactive)	> 100 µM (inactive)	GI50 (DMS-273): > 100 µM (inactive); GI50 (HOP-18): > 100 µM (inactive); GI50 (XF498): > 100 µM (inactive)
C/C(=N\N=C(/S)N(C)C)c1cccnn1	0.869 µM (active)	–	–	–	–
Cc1cc(O)c2c(c1)C(=O)c1cc(O)cc(O)c1C2=O [EMODIN]	–	23.3 µM (inactive)	40.8 µM (inactive)	–	GI50 (DMS-114): 41.2 µM (inactive); GI50 (DMS-273): 19.8 µM (inactive); GI50 (HOP-18): 3.94 µM (inactive); GI50 (RXF 631): 39.3 µM (inactive); GI50 (XF498): 26.1 µM (inactive)
COc1c(O)cc(O)c2c(=O)cc(-c3ccccc3)oc12 [WOGONIN]	55.2 µM (inactive)	–	–	–	–

From ChEMBL document CHEMBL1201862, “PubChem BioAssay data set” (2004)
